This passage reports IC50 results from patent publication US12624026B2, “Inhibitors of SARM1” (Disarm Therapeutics, Inc., priority 2018, dated 2026).
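Further: inhibition of SARM1 SAM-TIR NADase activity, i.e. NAD+ cleavage, using lysate of NRK1-HEK293T cells overexpressing the SAM-TIR fragment.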

This assay has as its target T1, SARM1 SAM-TIR (Homo sapiens, UniProt Q6SZW1).
T1 construct: a fragment of the SARM1 molecule encompassing the SAM and TIR domains; made in house; host or cells: NRK1-HEK293T cells, transiently transfected; the cleared, unpurified lysate was used as the enzyme
T1 sequence (Q6SZW1 409-724 limits assumed): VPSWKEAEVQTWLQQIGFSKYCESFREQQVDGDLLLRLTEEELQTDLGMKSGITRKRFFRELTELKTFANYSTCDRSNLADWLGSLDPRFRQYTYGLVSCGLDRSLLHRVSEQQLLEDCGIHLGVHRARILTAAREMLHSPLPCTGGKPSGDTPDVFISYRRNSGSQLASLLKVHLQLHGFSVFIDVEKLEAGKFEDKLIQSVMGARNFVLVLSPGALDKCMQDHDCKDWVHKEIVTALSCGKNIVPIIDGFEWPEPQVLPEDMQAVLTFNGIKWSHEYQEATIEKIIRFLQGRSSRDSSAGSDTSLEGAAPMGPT
The experiment in a line: biochemical. The settings on record: SAM-TIR lysate 5 μg/mL, 2 h pre-incubation, 5 μM NAD+, RapidFire MS of NAD+ and ADPR; read-out: SARM1 IC50.
Usually IC50 stands for the concentration needed to halve the response being measured. For the compound `Cc1cc(C)n2c1CC1C=CC(CCC(=O)NCCCCCn3sc(Nc4ccccc4C(F)(F)F)c(C#N)c3=O)=[N+]1[B-]2(F)F` (stereo not drawn) [Example 176], the IC50 was 1 to 5 µM.
In the case of `Cn1sc(Nc2cccc3ncccc23)c(C#N)c1=O` [Example 53], the IC50 is below 1 µM.
As for `C#CCOCCOCCn1sc(Nc2ccccc2C(F)(F)F)c(C#N)c1=O` [Example 179], the figure is below 1 µM; as for `N#Cc1c(O)nsc1Nc1ccc(C(F)(F)F)cc1` [Example 13], 1 to 5 µM; as for `O=c1[nH]sc(Nc2ccccc2C(F)(F)F)c1-c1ccccc1` [Example 168], above 5 µM.
In the case of `N#Cc1c(Nc2c(F)cccc2Cl)s[nH]c1=O` [Example 102], the IC50 is below 1 µM.
To `CN(C)CCn1sc(Nc2c(Cl)cccc2Cl)c(C#N)c1=O` [Example 99] belongs below 1 µM; to `COc1ccc(Cn2sc(N(CCF)c3ccccc3C(F)(F)F)c(C#N)c2=O)cc1` [Example 121], above 5 µM; to `Cn1sc(Nc2c(Cl)ccc3c2CCCO3)c(C#N)c1=O` [Example 66], below 1 µM.
`N#Cc1c(Nc2ccccc2C(F)(F)F)sn(CC2(O)CC2)c1=O` [Example 61]: the IC50 was below 1 µM.
As for `COCCn1sc(Nc2cccc(Cl)c2Cl)c(C(=N)N2CCOCC2)c1=O` [Example 130], the figure is below 1 µM; as for `NC(=O)c1c(O)nsc1Nc1cccc(Cl)c1Cl` [Example 18], 1 to 5 µM.
To `C[C@@H](CO)n1sc(Nc2ccccc2C(F)(F)F)c(C#N)c1=O` [Example 44] belongs below 1 µM.
To `N#Cc1c(Nc2c(Cl)ccc3ncccc23)s[nH]c1=O` [Example 104] belongs 1 to 5 µM; to `C[C@@H](c1ccccc1)n1sc(Nc2c(Cl)cccc2Cl)c(C(=O)N2CCOCC2)c1=O` [Example 167], 1 to 5 µM; to `N#Cc1c(Nc2c(Cl)cccc2Cl)sn(CCO)c1=O` [Example 68], below 1 µM.
On to `COCCn1sc(Nc2c(Cl)cccc2Cl)c(C(N)=O)c1=O` [Example 118], for which the concentration for half-maximal inhibition (IC50) was above 5 µM.
With `CC(O)Cn1sc(Nc2ccccc2C(F)(F)F)c(C#N)c1=O` (stereo not drawn) [Example 43], the IC50 is below 1 µM.
In the case of `N#Cc1c(Nc2ccc(N3CC[C@@H](N)C3)nc2)s[nH]c1=O` [Example 144], the IC50 was 1 to 5 µM.
To `N#Cc1c(Nc2ccccc2C(F)(F)F)sn(Cc2n[nH]c3ccccc23)c1=O` [Example 92] belongs below 1 µM.
As for `N#Cc1c(Nc2cccc(Br)c2C(F)(F)F)s[nH]c1=O` [Example 49], the figure is below 1 µM; as for `CC(C)c1ccc(Nc2snc(O)c2C#N)cc1` [Example 4], above 5 µM.
As for `N#Cc1c(Nc2ccccc2C(F)(F)F)sn(CCOCCOCCNC(=O)CCCC[C@@H]2SC[C@@H]3NC(=O)N[C@@H]32)c1=O` [Example 178], the figure is below 1 µM; as for `COc1ccc2nc(C)ccc2c1Nc1sn(C)c(=O)c1C#N` [Example 82], below 1 µM.
With `COCCN(C)C(=O)c1c(Nc2ccccc2C(F)(F)F)sn([C@@H](C)c2ccccc2)c1=O` [Example 114], the IC50 is above 5 µM.
Regarding `O=C(c1c(Nc2ccccc2C(F)(F)F)s[nH]c1=O)N1CCOCC1` [Example 148], the IC50 is 1 to 5 µM.
To `Cn1sc(Nc2ccccc2Cl)c(C#N)c1=O` [Example 32] belongs below 1 µM; to `Cn1sc(Nc2c(Cl)ccc3c2cnn3C)c(C#N)c1=O` [Example 48], below 1 µM.
As for `COc1ccc2ncccc2c1Nc1sn(C)c(=O)c1C#N` [Example 84], the IC50 is below 1 µM.
To `O=C(c1c(Nc2c(Cl)cccc2Cl)s[nH]c1=O)N1CCOCC1` [Example 153] belongs 1 to 5 µM; to `Cc1ccc(Nc2snc(O)c2C#N)cc1` [Example 3], 1 to 5 µM; to `COc1cccc(C(F)(F)F)c1Nc1s[nH]c(=O)c1C(=O)N1CCOCC1` [Example 159], above 5 µM.
As for `Cc1ccc2ncccc2c1Nc1sn(C)c(=O)c1C#N` [Example 81], the figure is below 1 µM; as for `COc1ccc(Cn2sc(Nc3ccccc3)c(C#N)c2=O)cc1` [Example 88], below 1 µM; as for `COCCN(C)C(=N)c1c(Nc2cccc(Cl)c2Cl)sn(CCOC)c1=O` [Example 124], below 1 µM.
On to `N#Cc1c(N2CCc3ccccc32)s[nH]c1=O` [Example 162], for which the IC50 was above 5 µM.
`N#Cc1c(O)nsc1Nc1cc(Cl)ccc1Cl` [Example 19]: the IC50 was below 1 µM.
As for `N#Cc1c(Nc2ccccc2C(F)(F)F)sn(CCc2ccccc2)c1=O` [Example 83], the figure is below 1 µM; as for `N#Cc1c(O)nsc1Nc1ccc2ccccc2c1` [Example 28], 1 to 5 µM.
To `CC(C)n1sc(Nc2ccccc2C(F)(F)F)c(C#N)c1=O` [Example 107] belongs below 1 µM.
With `N#Cc1c(Nc2ccccc2C(F)(F)F)sn(Cc2ccccn2)c1=O` [Example 62], the IC50 is below 1 µM.
As for `COCCn1sc(Nc2ccc(Cl)cc2C(F)(F)F)c(C#N)c1=O` [Example 70], the IC50 is below 1 µM.
As to `CN(C(=O)c1c(Nc2ccccc2C(F)(F)F)s[nH]c1=O)c1ccccc1` [Example 172], the IC50 was in the range of 1 to 5 µM.
As for `Cc1cccc(C)c1Nc1snc(O)c1C#N` [Example 22], the figure is 1 to 5 µM; as for `N#Cc1c(Nc2ccccc2C(F)(F)F)sn(CCCCCNC(=O)CCCC[C@@H]2SC[C@@H]3NC(=O)N[C@@H]32)c1=O` [Example 175], below 1 µM.
Take `COCCCn1sc(Nc2ccccc2C(F)(F)F)c(C#N)c1=O` [Example 71]: the IC50 was below 1 µM.
As for `N#Cc1c(Nc2ccc3c(c2)ncn3[C@H]2CCNC2)s[nH]c1=O` [Example 151], the figure is 1 to 5 µM; as for `N#Cc1c(Nc2cccc(Cl)c2Cl)sn(CCO)c1=O` [Example 34], below 1 µM.
As for `COCCn1sc(Nc2ccccc2C(F)(F)F)c(-c2ncon2)c1=O` [Example 152], the figure is above 5 µM; as for `N#Cc1c(Nc2ccccc2C(F)(F)F)sn(CCC(=O)O)c1=O` [Example 105], below 1 µM; as for `N#Cc1c(Nc2cccc(C(N)=O)c2C(F)(F)F)s[nH]c1=O` [Example 108], 1 to 5 µM.
As for `Cn1sc(Nc2c(F)cccc2Cl)c(C#N)c1=O` [Example 45], the figure is below 1 µM; as for `N#Cc1c(O)nsc1Nc1ccccc1Cl` [Example 2], below 1 µM; as for `Cn1sc(Nc2c(Cl)cccc2Cl)c(C#N)c1=O` [Example 46], below 1 µM.
With `N#Cc1c(O)nsc1Nc1cccc(Cl)c1Cl` [Example 17], the IC50 was below 1 µM.
As for `COCCn1sc(N(C)c2ccccc2C(F)(F)F)c(-c2ncon2)c1=O` [Example 160], the figure is above 5 µM; as for `N#Cc1c(Nc2ccccc2C(F)(F)F)sn(CC(N)=O)c1=O` [Example 38], below 1 µM; as for `N#Cc1c(Nc2cccc(C(=O)O)c2C(F)(F)F)s[nH]c1=O` [Example 120], above 5 µM.
To `N#Cc1c(O)nsc1Nc1ccccc1OC(F)(F)F` [Example 15] belongs below 1 µM; to `O=C(c1c(Nc2ccccc2C(F)(F)F)s[nH]c1=O)N1CCCCC1` [Example 117], 1 to 5 µM.
To `N#Cc1c(O)nsc1Nc1cc(Cl)cc(Cl)c1` [Example 10] belongs 1 to 5 µM.
Regarding `N#Cc1c(Nc2cccc(C3CCCNC3)c2C(F)(F)F)s[nH]c1=O` (stereo not drawn) [Example 157], the IC50 is above 5 µM.
Consider `N#Cc1c(Nc2ccccc2C(F)(F)F)sn(CC2CCCO2)c1=O` (stereo not drawn) [Example 76], for which the IC50 was below 1 µM.
To `COc1cccc(C)c1Nc1sn(C)c(=O)c1C#N` [Example 93] belongs below 1 µM; to `CN(C)C(=N)c1c(Nc2c(Cl)ccc3ncccc23)s[nH]c1=O` [Example 145], 1 to 5 µM; to `N#Cc1c(Nc2ccccc2C(F)(F)F)sn(Cc2ccccc2)c1=O` [Example 80], below 1 µM.
In the case of `Cn1sc(Nc2c(Cl)ccc3c2CCO3)c(C#N)c1=O` [Example 40], the IC50 was below 1 µM.
`COCCN(C)C(=N)c1c(Nc2cccc(Cl)c2Cl)s[nH]c1=O` [Example 139]: the IC50 lay in the range of 1 to 5 µM.
To `N#Cc1c(Nc2cccc(C3CCNCC3)c2C(F)(F)F)s[nH]c1=O` [Example 163] belongs above 5 µM; to `CS(=O)(=O)c1ccccc1Nc1snc(O)c1C#N` [Example 25], below 1 µM; to `N#Cc1c(O)nsc1Nc1ccccc1F` [Example 11], 1 to 5 µM.
As for `COCCN(C)C(=O)c1c(Nc2c(Cl)cccc2Cl)s[nH]c1=O` [Example 119], the figure is above 5 µM; as for `N#Cc1c(O)nsc1NCc1ccccc1` [Example 24], above 5 µM.
To `COc1cccc(C)c1Nc1s[nH]c(=O)c1C#N` [Example 109] belongs 1 to 5 µM; to `C[C@@H](c1ccccc1)n1sc(Nc2ccccc2C(F)(F)F)c(C#N)c1=O` [Example 94], below 1 µM; to `N#Cc1c(Nc2ccc3nc(C(F)(F)F)[nH]c(=O)c3c2)s[nH]c1=O` [Example 173], above 5 µM.
Regarding `COc1cccc(Cl)c1Nc1sn(C)c(=O)c1C#N` [Example 35], the IC50 was below 1 µM.
For the compound `COc1cccc(C(F)(F)F)c1Nc1sn(C)c(=O)c1C(=O)N1CCOCC1` [Example 158], the IC50 is above 5 µM.
Regarding `N#Cc1c(Nc2ccccc2C(F)(F)F)sn(CCC(N)=O)c1=O` [Example 36], the IC50 is below 1 µM.
Consider `N#Cc1c(O)nsc1Nc1cccnc1` [Example 20], for which the IC50 was above 5 µM.
To `COc1ccccc1Nc1snc(O)c1C#N` [Example 14] belongs 1 to 5 µM.
